Earlier results, collected in patent US20260256858A1, “Amanita Muscaria Mushroom Extracts and Products, and Improved Processes for Producing Extracts of Amanita Muscaria Mushrooms at Kilogram Scale” (priority 2023, published 2026).

Experiments:
[1] = after ingestion of Amanita mushrooms
[2] = IV injection, 8 μmol/kg, 150 g rat

Structure (SMILES)	brain regions with the highest muscimol concentration (IV injection of 3H-muscimol, 8 μmol/kg, rat)	amount of the dose injected that crossed to the brain [2]	muscimol concentration in brain [2]	time until blood concentration was below limits of detection (after intravenous injection, rat)	distribution in corneum stratum compared to hypothalamus, hippocampus and cortex (intracerebroventricular injection, 1200 nmol/kg, rat)	tolerability (adverse effects or toxicity) (intravenous injection of muscimol, 8 μmol/kg, rat)	detection in urine after ingestion [1]
NCc1cc(=O)[nH]o1 [muscimol, 5-(aminomethyl)-1,2-oxazol-3 (2H)-one]	the substantia nigra, the colliculi and the hypothalamus	approximately 0.02%	approximately 200 pmol/g tissue	≤ 180 min	approximately 2 times higher	well-tolerated	detected within an hour after ingestion
N[C@H](C(=O)O)c1cc(=O)[nH]o1 [ibotenic acid, (S)-2-amino-2-(3-hydroxyisoxazol-5-yl) acetic acid]	–	–	–	–	–	–	detected within an hour after ingestion
